Source: ChEMBL document CHEMBL1201862, “PubChem BioAssay data set” (2004)
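Each compound was tested at five concentrations against cells in 96-well plates for 48 hours. Abbreviation: GI50, concentration required for 50% inhibition of growth.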 Activity calls are given as the source filed them. No stated cut-off is given here; in the data, active = GI50 up to about 1.1 µM and inactive = higher.

What was measured:
Assay in all cases: NCI tumour cell line growth inhibition, 48 h
786-0 = system: 786-0
A549 = system: A549
ACHN = system: ACHN
BT-549 = system: BT-549
CAKI-1 = system: CAKI-1
CCRF-CEM = system: CCRF-CEM
COLO 205 = system: COLO 205
DU-145 = system: DU-145
EKVX = system: EKVX
HCC 2998 = system: HCC 2998
HCT-116 = system: HCT-116
HCT-15 = system: HCT-15
HOP-62 = system: HOP-62
HOP-92 = system: HOP-92
HT-29 = system: HT-29
Hs-578T = system: Hs-578T
IGROV-1 = system: IGROV-1
K562 = system: K562
KM12 = system: KM12
LOX IMVI = system: LOX IMVI
M14 = system: M14
MCF7 = system: MCF7
MDA-MB-231 = system: MDA-MB-231
MDA-MB-435 = system: MDA-MB-435
MDA-N = system: MDA-N
MOLT-4 = system: MOLT-4
Malme-3M = system: Malme-3M
NCI-H23 = system: NCI-H23
NCI-H460 = system: NCI-H460
NCI-H522 = system: NCI-H522
NCI/ADR-RES = system: NCI/ADR-RES
OVCAR-3 = system: OVCAR-3
OVCAR-4 = system: OVCAR-4
OVCAR-5 = system: OVCAR-5
OVCAR-8 = system: OVCAR-8
PC-3 = system: PC-3
RXF 393 = system: RXF 393
SF-268 = system: SF-268
SF-295 = system: SF-295
SF-539 = system: SF-539
SK-MEL-28 = system: SK-MEL-28
SK-MEL-2 = system: SK-MEL-2
SK-MEL-5 = system: SK-MEL-5
SK-OV-3 = system: SK-OV-3
SN12C = system: SN12C
SNB-19 = system: SNB-19
SNB-75 = system: SNB-75
SR = system: SR
SW-620 = system: SW-620
T47D = system: T47D
TK-10 = system: TK-10
U-251 = system: U-251
UACC-257 = system: UACC-257
UACC-62 = system: UACC-62
UO-31 = system: UO-31
HL-60 = system: HL-60
NCI-H226 = system: NCI-H226
RPMI-8226 = system: RPMI-8226

## Cn1/c(=N\N=C(\CNCCO)[C@@H](O)[C@@H]2OC(c3ccccc3)OC[C@H]2O)sc2ccccc21 (some centres not stated)
786-0
  GI50: 18 µM (inactive)
A549
  GI50: 15.8 µM (inactive)
ACHN
  GI50: 19.9 µM (inactive)
BT-549
  GI50: 21.1 µM (inactive)
CAKI-1
  GI50: 15.6 µM (inactive)
CCRF-CEM
  GI50: 17.8 µM (inactive)
COLO 205
  GI50: 15.5 µM (inactive)
DU-145
  GI50: 18.5 µM (inactive)
EKVX
  GI50: 15.4 µM (inactive)
HCC 2998
  GI50: 11.3 µM (inactive)
HCT-116
  GI50: 16 µM (inactive)
HCT-15
  GI50: 25.5 µM
HOP-62
  GI50: 17.8 µM (inactive)
HOP-92
  GI50: 11 µM (inactive)
HT-29
  GI50: 18.6 µM (inactive)
Hs-578T
  GI50: 14.8 µM (inactive)
IGROV-1
  GI50: 15.8 µM (inactive)
K562
  GI50: 14.8 µM (inactive)
KM12
  GI50: 17.1 µM (inactive)
LOX IMVI
  GI50: 15.1 µM (inactive)
M14
  GI50: 13.2 µM (inactive)
MCF7
  GI50: 16.7 µM (inactive)
MDA-MB-231
  GI50: 15.2 µM (inactive)
MDA-MB-435
  GI50: 17.9 µM (inactive)
MDA-N
  GI50: 17.6 µM (inactive)
MOLT-4
  GI50: 14.9 µM (inactive)
Malme-3M
  GI50: 17.7 µM (inactive)
NCI-H23
  GI50: 20 µM (inactive)
NCI-H460
  GI50: 21.5 µM (inactive)
NCI-H522
  GI50: 17.6 µM (inactive)
NCI/ADR-RES
  GI50: 50.7 µM (inactive)
OVCAR-3
  GI50: 16.4 µM (inactive)
OVCAR-4
  GI50: 23.9 µM (inactive)
OVCAR-5
  GI50: 18.2 µM (inactive)
OVCAR-8
  GI50: 19.2 µM (inactive)
PC-3
  GI50: 16.6 µM (inactive)
RXF 393
  GI50: 16.1 µM (inactive)
SF-268
  GI50: 15.5 µM (inactive)
SF-295
  GI50: 18.7 µM (inactive)
SF-539
  GI50: 17.5 µM (inactive)
SK-MEL-28
  GI50: 17.3 µM (inactive)
SK-MEL-2
  GI50: 17.7 µM (inactive)
SK-MEL-5
  GI50: 14.9 µM (inactive)
SK-OV-3
  GI50: 18.4 µM (inactive)
SN12C
  GI50: 17.9 µM (inactive)
SNB-19
  GI50: 12.8 µM (inactive)
SNB-75
  GI50: 16 µM (inactive)
SR
  GI50: 19 µM (inactive)
SW-620
  GI50: 18 µM (inactive)
T47D
  GI50: 20.1 µM (inactive)
TK-10
  GI50: 18.5 µM (inactive)
U-251
  GI50: 17.3 µM (inactive)
UACC-257
  GI50: 19.6 µM (inactive)
UACC-62
  GI50: 16.9 µM (inactive)
UO-31
  GI50: 15.4 µM (inactive)

## CC(=O)O[C@@]12[C@@H]3O[C@@]4(O)C[C@]5(C)[C@H]6C[C@@](C(C)C)(O[C@H]5c5ccoc5)O[C@H]1[C@]6(C4)O[C@]2(O)C(C)=CC3(C)C
786-0
  GI50: 64.4 µM (inactive)
A549
  GI50: > 100 µM (inactive)
ACHN
  GI50: > 100 µM (inactive)
BT-549
  GI50: > 100 µM (inactive)
CAKI-1
  GI50: > 100 µM (inactive)
CCRF-CEM
  GI50: > 100 µM (inactive)
COLO 205
  GI50: > 100 µM (inactive)
DU-145
  GI50: > 100 µM (inactive)
EKVX
  GI50: > 100 µM (inactive)
HCC 2998
  GI50: > 100 µM (inactive)
HCT-116
  GI50: > 100 µM (inactive)
HCT-15
  GI50: > 100 µM
HL-60
  GI50: > 100 µM (inactive)
HOP-62
  GI50: > 100 µM (inactive)
HOP-92
  GI50: > 100 µM (inactive)
HT-29
  GI50: > 100 µM (inactive)
Hs-578T
  GI50: > 100 µM (inactive)
IGROV-1
  GI50: > 100 µM (inactive)
K562
  GI50: > 100 µM (inactive)
KM12
  GI50: > 100 µM (inactive)
LOX IMVI
  GI50: > 100 µM (inactive)
M14
  GI50: > 100 µM (inactive)
MCF7
  GI50: > 100 µM (inactive)
MDA-MB-231
  GI50: > 100 µM (inactive)
MDA-MB-435
  GI50: > 100 µM (inactive)
MDA-N
  GI50: > 100 µM (inactive)
MOLT-4
  GI50: > 100 µM (inactive)
Malme-3M
  GI50: > 100 µM (inactive)
NCI-H226
  GI50: > 100 µM (inactive)
NCI-H23
  GI50: > 100 µM (inactive)
NCI-H522
  GI50: 78.5 µM (inactive)
NCI/ADR-RES
  GI50: > 100 µM (inactive)
OVCAR-3
  GI50: > 100 µM (inactive)
OVCAR-4
  GI50: > 100 µM (inactive)
OVCAR-5
  GI50: > 100 µM (inactive)
OVCAR-8
  GI50: > 100 µM (inactive)
PC-3
  GI50: > 100 µM (inactive)
RPMI-8226
  GI50: > 100 µM (inactive)
RXF 393
  GI50: > 100 µM (inactive)
SF-268
  GI50: > 100 µM (inactive)
SF-295
  GI50: > 100 µM (inactive)
SF-539
  GI50: > 100 µM (inactive)
SK-MEL-28
  GI50: > 100 µM (inactive)
SK-MEL-2
  GI50: > 100 µM (inactive)
SK-MEL-5
  GI50: > 100 µM (inactive)
SK-OV-3
  GI50: > 100 µM (inactive)
SN12C
  GI50: > 100 µM (inactive)
SNB-19
  GI50: 63.2 µM (inactive)
SNB-75
  GI50: 75.9 µM (inactive)
SR
  GI50: > 100 µM (inactive)
SW-620
  GI50: > 100 µM (inactive)
T47D
  GI50: > 100 µM (inactive)
TK-10
  GI50: > 100 µM (inactive)
U-251
  GI50: > 100 µM (inactive)
UACC-257
  GI50: > 100 µM (inactive)
UACC-62
  GI50: > 100 µM (inactive)
UO-31
  GI50: > 100 µM (inactive)

## Nc1nc(SCCc2ccccc2)nc2nc3c(c(-c4ccccc4)c12)CCCC3
A549
  GI50: > 100 µM (inactive)
ACHN
  GI50: > 100 µM (inactive)
BT-549
  GI50: 42 µM (inactive)
CAKI-1
  GI50: > 100 µM (inactive)
CCRF-CEM
  GI50: > 100 µM (inactive)
COLO 205
  GI50: > 100 µM (inactive)
DU-145
  GI50: > 100 µM (inactive)
EKVX
  GI50: > 100 µM (inactive)
HCT-116
  GI50: > 10 µM (inactive)
HCT-15
  GI50: > 100 µM
HL-60
  GI50: > 100 µM (inactive)
HOP-62
  GI50: 66.1 µM (inactive)
HT-29
  GI50: > 100 µM (inactive)
Hs-578T
  GI50: 8.65 µM (inactive)
IGROV-1
  GI50: > 100 µM (inactive)
K562
  GI50: > 100 µM (inactive)
KM12
  GI50: > 100 µM (inactive)
LOX IMVI
  GI50: > 100 µM (inactive)
M14
  GI50: > 100 µM (inactive)
MCF7
  GI50: > 100 µM (inactive)
MDA-MB-231
  GI50: > 100 µM (inactive)
MDA-MB-435
  GI50: > 100 µM (inactive)
MDA-N
  GI50: > 100 µM (inactive)
MOLT-4
  GI50: > 100 µM (inactive)
Malme-3M
  GI50: > 100 µM (inactive)
NCI-H23
  GI50: > 100 µM (inactive)
NCI-H460
  GI50: > 100 µM (inactive)
NCI/ADR-RES
  GI50: > 100 µM (inactive)
OVCAR-3
  GI50: > 100 µM (inactive)
OVCAR-4
  GI50: 40.9 µM (inactive)
OVCAR-8
  GI50: > 100 µM (inactive)
PC-3
  GI50: > 100 µM (inactive)
RPMI-8226
  GI50: > 100 µM (inactive)
RXF 393
  GI50: 24.3 µM (inactive)
SF-268
  GI50: > 100 µM (inactive)
SF-295
  GI50: > 100 µM (inactive)
SF-539
  GI50: 0.706 µM (active)
SK-MEL-28
  GI50: > 100 µM (inactive)
SK-MEL-5
  GI50: > 10 µM (inactive)
SK-OV-3
  GI50: 99.1 µM (inactive)
SN12C
  GI50: > 100 µM (inactive)
SNB-19
  GI50: > 100 µM (inactive)
SNB-75
  GI50: 34.9 µM (inactive)
SW-620
  GI50: > 100 µM (inactive)
T47D
  GI50: > 100 µM (inactive)
TK-10
  GI50: > 100 µM (inactive)
U-251
  GI50: > 100 µM (inactive)
UACC-257
  GI50: > 100 µM (inactive)
UACC-62
  GI50: > 100 µM (inactive)
UO-31
  GI50: > 100 µM (inactive)
